Data set [1] has as its system miRNAs in diaphragm muscle of mdx mice. Put plainly: qRT-PCR of individual miRNAs in diaphragm, validation set (4-month treatment, treadmill-run mdx mice). The settings on record: 6 months of age, prednisolone 5 mg/kg, vamorolone 45 mg/kg; for expression of the other seven inflammatory miRNAs: P≤0.05. Format: in vivo, mouse. An excerpt: Archival muscle samples (diaphragm) from two separate preclinical studies were obtained, with each trial showing a significant benefit from both prednisolone and vamorolone drug treatments (23). Prednisolone was used because it is the active form of prednisone, the current DMD standard of care. The first, “discovery set” of diaphragm muscles was from a prophylactic trial design where 2-week old (postnatal day 15) mdx or wild type control mice received oral dosing for 6 weeks with vehicle (cherry syrup), prednisolone (5 mg/kg), or vamorolone (15 mg/kg) as previously reported (23). The second, “validation set” of diaphragm muscles was from an extended trial in older mice where mdx or wild type mice were subjected to treadmill running to unmask mild phenotypes. Mice in this validation set were treated with either vehicle, prednisolone (5 mg/kg) or vamorolone (45 mg/kg) for four months beginning at two months of age (23). At the endpoint of each trial, diaphragm muscles were harvested and frozen in liquid nitrogen-cooled isopentane.
Specific miRNAs were quantified in the validation set of samples using individual TaqMan assays specific for each miRNA (ThermoFisher; Carlsbad, Calif.) according to the manufacturer's protocol. Assay IDs used include 000468, 001346, 002455, 001280, 000528, 002352, 000464, 002509, and 002248. Total RNA was converted to cDNA using multiplexed RT primers and High Capacity cDNA Reverse Transcription Kit (ThermoFisher; Carlsbad, Calif.). The cDNA was pre-amplified using TaqMan PreAmp Master Mix (ThermoFisher; Carlsbad, Calif.). The miRNAs were then quantified using individual TaqMan assays on an ABI QuantStudio 7 real time PCR machine (Applied Biosystems; Foster City, Calif.).
In the discovery set experiments, levels of each miRNA were quantified in TaqMan low-density arrays using ThermoFisher Cloud software with the Relative Quantification Application (ThermoFisher; Carlsbad, Calif.) tool. Data was analyzed by ANOVA with post-hoc comparison of each group to the mdx vehicle-treated group. […] A P-value of P≤0.05 was set as the significance threshold, without adjustment for multiple comparisons. To reduce false-positive discovery in this setting, an evidence-based approach was used to identify efficacy associated miRNAs where 1) results from the multiple groups were cross-referenced, and 2) all candidate miRNAs identified in this discovery set were then assayed in a separate validation set of mice. For the validation set experiments, levels of each individual miRNA were assayed in samples from a second, independent preclinical trial in adult mdx mice. Data from individual TaqMan Assays was quantified using QuantStudio Real-Time PCR version 1.3 software (Applied Biosystems; Foster City, Calif.). […]

In another data set the test system is mdx mice. The settings on record: same mdx mice as discovery set; prednisolone 5 mg/kg, vamorolone 15 mg/kg; cited from earlier work.

`C[C@]12C=CC(=O)C=C1CC[C@@H]1[C@@H]2[C@@H](O)C[C@@]2(C)[C@H]1CC[C@]2(O)C(=O)CO` [prednisolone]: in data set [1], the “response of miR-301a to drug treatment” value is “did not respond to drug treatment” and the “expression of the other seven inflammatory miRNAs” value was “significant decrease towards healthy wild type levels”. In addition, in the data set on mdx mice, the “grip strength, muscle pathology and diaphragm inflammation” value is “successfully improved grip strength, muscle pathology, and diaphragm inflammation”; the “steroid side effects (stunted growth, immunosuppression, bone loss)” value was “caused traditional steroid side effects of stunted growth, immunosuppression, and bone loss”.
Regarding `C[C@@H]1C[C@H]2[C@@H]3CCC4=CC(=O)C=C[C@]4(C)C3=CC[C@]2(C)[C@@]1(O)C(=O)CO` [vamorolone], in data set [1], the “response of miR-301a to drug treatment” value was “did not respond to drug treatment” and the “expression of the other seven inflammatory miRNAs” value was “significant decrease towards healthy wild type levels”. In the data set on mdx mice, the “grip strength, muscle pathology and diaphragm inflammation” value was “successfully improved grip strength, muscle pathology, and diaphragm inflammation”; the “steroid side effects (stunted growth, immunosuppression, bone loss)” value is given as “successfully avoided these side effects”.

(Values after patent US12281304B2, “Compositions and methods for treating and preventing muscular disorders and dystrophies, steroid side effects, and inflammation” (Children's National Medical Center, priority 2018, dated 2025).)
